Assay results taken from PubChem BioAssay (NCI).
Several values for one entry are separate records, joined by “and”; a condition that tells them apart may be missing. Identical values can stand only once.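 Interpolation was linear, between the two tested concentrations surrounding the appropriate level; five concentrations were tested over 48 hours in 96-well plates. Here, GI50 denotes the concentration required for 50% inhibition of growth. TGI: total growth inhibition.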

Assays:
Test in all cases: NCI tumour cell line growth inhibition, 48 h
MDA-N = system: MDA-N
XF 498 CNS = system: XF 498 CNS
M19-MEL melanoma = system: M19-MEL melanoma
HOP-18 NSCLC = system: HOP-18 NSCLC
KM20L2 colon = system: KM20L2 colon
DMS 273 small cell lung = system: DMS 273 small cell lung
DMS 114 small cell lung = system: DMS 114 small cell lung
DLD-1 colon = system: DLD-1 colon
P388/ADR leukemia = system: P388/ADR leukemia
P388 leukemia = system: P388 leukemia
SN12K1 renal = system: SN12K1 renal
RXF-631 renal = system: RXF-631 renal

## CC1(C)Oc2ccc3ccc(=O)oc3c2C(O)C1O (stereo unspecified)
MDA-N
  TGI: > 100 µM

## O=C1c2ccccc2-c2c3c(cc4ccnc1c24)OCO3
XF 498 CNS
  TGI: 21.1 µM and 22.1 µM
M19-MEL melanoma
  TGI: 86.7 µM and 12.9 µM
HOP-18 NSCLC
  TGI: > 100 µM
KM20L2 colon
  TGI: > 100 µM and 60.9 µM
DMS 273 small cell lung
  TGI: 29.4 µM and 19.2 µM
DMS 114 small cell lung
  GI50: 10.1 µM and 4.87 µM
  TGI: > 100 µM and 32.4 µM
DLD-1 colon
  TGI: 24.7 µM and 27.3 µM

## O=C(O)Cc1cccc2c(=O)cc(-c3ccccc3)oc12
XF 498 CNS
  TGI: 89.7 µM
P388/ADR leukemia
  TGI: 150 µM
M19-MEL melanoma
  TGI: > 250 µM
P388 leukemia
  TGI: 250 µM
HOP-18 NSCLC
  TGI: 250 µM
KM20L2 colon
  TGI: > 250 µM
DMS 273 small cell lung
  TGI: > 250 µM
SN12K1 renal
  TGI: > 250 µM
MDA-N
  GI50: 176 µM
  TGI: 250 µM and > 893 µM
DMS 114 small cell lung
  TGI: 250 µM
DLD-1 colon
  TGI: > 250 µM

## O=C1Nc2c(Cl)cc(Cl)cc2/C1=N/N=C/c1ccco1
MDA-N
  TGI: 55.3 µM

## c1ccc(SC(Sc2ccccc2)=C2CCC2)cc1
RXF-631 renal
  TGI: > 100 µM
XF 498 CNS
  TGI: > 100 µM
M19-MEL melanoma
  TGI: > 100 µM
KM20L2 colon
  TGI: > 100 µM
DMS 273 small cell lung
  TGI: > 100 µM
DMS 114 small cell lung
  TGI: > 100 µM
DLD-1 colon
  TGI: > 100 µM

## O=C(O)c1cccc(S(=O)(=O)NCCO)c1
MDA-N
  TGI: > 100 µM

## Cc1ccc(OP(=O)(Oc2ccc(C)cc2)N2C=Cc3ccccc3C2C#N)cc1 (stereo unspecified)
MDA-N
  TGI: > 100 µM

## CN(C)c1ccc(/C=c2\sc3nnc(-c4ccco4)n3c2=O)cc1
RXF-631 renal
  TGI: > 100 µM
XF 498 CNS
  TGI: > 100 µM
M19-MEL melanoma
  TGI: > 100 µM
HOP-18 NSCLC
  TGI: > 100 µM
KM20L2 colon
  TGI: > 100 µM
DMS 273 small cell lung
  TGI: > 100 µM
DMS 114 small cell lung
  TGI: > 100 µM
DLD-1 colon
  TGI: > 100 µM

## CCN(CC)CCN(CC)CC.CCN(CC)CCN(CC)CC.[Cu+2].[Cu+2].[O-][Cl+3]([O-])([O-])[O-].[OH3+].[OH3+]
M19-MEL melanoma
  GI50: 24.2 µM
  TGI: 53.7 µM
HOP-18 NSCLC
  GI50: > 100 µM
  TGI: > 100 µM
KM20L2 colon
  GI50: 23.9 µM
  TGI: 61.4 µM
DMS 273 small cell lung
  GI50: 22 µM
  TGI: > 100 µM
DMS 114 small cell lung
  GI50: 16.6 µM
  TGI: 32.6 µM
DLD-1 colon
  GI50: 51.9 µM
  TGI: > 100 µM

## CCC[CH2][Sn](=[O])[CH2]CCC
M19-MEL melanoma
  GI50: > 50 µM
  TGI: > 50 µM
HOP-18 NSCLC
  GI50: > 50 µM
  TGI: > 50 µM
KM20L2 colon
  GI50: > 50 µM
  TGI: > 50 µM
DMS 273 small cell lung
  GI50: > 50 µM
  TGI: > 50 µM
DMS 114 small cell lung
  GI50: > 50 µM
  TGI: > 50 µM
DLD-1 colon
  GI50: > 50 µM
  TGI: > 50 µM

## CC(C)(C)OC(=O)C1C(=O)NC(=O)CC1CC(OCc1ccccc1)C(OCc1ccccc1)C(COCc1ccccc1)OCc1ccccc1 (stereo unspecified)
MDA-N
  GI50: > 100 µM and 34.2 µM
  TGI: > 100 µM

## NC(=O)c1cc(N2CC2)c([N+](=O)[O-])cc1[N+](=O)[O-]
MDA-N
  TGI: > 200 µM

## Cc1cccc(-c2nnc3s/c(=C\c4ccc(N(C)C)cc4)c(=O)n23)c1
XF 498 CNS
  TGI: > 100 µM
M19-MEL melanoma
  TGI: > 100 µM
HOP-18 NSCLC
  TGI: > 100 µM
KM20L2 colon
  TGI: > 100 µM
DMS 273 small cell lung
  TGI: > 100 µM
DLD-1 colon
  TGI: > 100 µM

## Cc1ccc(/C=C/C(=O)c2ccc(Cl)c(Cl)c2)cc1
RXF-631 renal
  TGI: > 100 µM
XF 498 CNS
  TGI: > 100 µM
HOP-18 NSCLC
  TGI: > 100 µM
KM20L2 colon
  TGI: > 100 µM
DMS 273 small cell lung
  TGI: > 100 µM
DLD-1 colon
  TGI: > 100 µM

## CC(Oc1ccc2c(-c3ccc(Cl)cc3)cc(=O)oc2c1)C(=O)O (stereo unspecified)
RXF-631 renal
  TGI: > 100 µM
XF 498 CNS
  TGI: > 100 µM
HOP-18 NSCLC
  TGI: > 100 µM
KM20L2 colon
  TGI: > 100 µM
DLD-1 colon
  TGI: > 100 µM

## O=[N+]([O-])c1nccn1CC(O)c1ccccc1 (stereo unspecified)
XF 498 CNS
  TGI: > 100 µM
HOP-18 NSCLC
  TGI: > 100 µM
KM20L2 colon
  TGI: > 100 µM
DMS 273 small cell lung
  TGI: > 100 µM
DMS 114 small cell lung
  TGI: > 100 µM

## COc1ccc(/C=C/c2cc(OC)c(OC(C)=O)c(OC)c2)cc1
RXF-631 renal
  TGI: > 100 µM
XF 498 CNS
  TGI: > 100 µM
M19-MEL melanoma
  TGI: > 100 µM
KM20L2 colon
  TGI: > 100 µM
DMS 273 small cell lung
  TGI: > 100 µM
DMS 114 small cell lung
  TGI: 84.7 µM
DLD-1 colon
  TGI: > 100 µM

## CSC(=NC(=O)c1ccccc1Cl)SCCSC(=NC(=O)c1ccccc1Cl)SC
XF 498 CNS
  TGI: > 100 µM
M19-MEL melanoma
  TGI: > 100 µM
KM20L2 colon
  TGI: > 100 µM
DMS 273 small cell lung
  TGI: > 100 µM
DMS 114 small cell lung
  TGI: > 100 µM
DLD-1 colon
  TGI: > 100 µM

## CCOC(=O)C12CCCC1(O)N(NC(=O)OC)C(C)=C2C(=O)OC (stereo unspecified)
RXF-631 renal
  TGI: > 100 µM
XF 498 CNS
  TGI: > 100 µM
M19-MEL melanoma
  TGI: > 100 µM
HOP-18 NSCLC
  TGI: > 100 µM
KM20L2 colon
  TGI: > 100 µM
DMS 273 small cell lung
  TGI: > 100 µM
DMS 114 small cell lung
  TGI: > 100 µM
DLD-1 colon
  TGI: > 100 µM

## O=C(C[n+]1ccccc1)N/N=C(/CCC(=O)N(Cc1ccccc1)Cc1ccccc1)CC(=O)c1ccccc1
RXF-631 renal
  TGI: > 100 µM
M19-MEL melanoma
  TGI: > 100 µM
HOP-18 NSCLC
  TGI: > 100 µM
KM20L2 colon
  TGI: > 100 µM
DMS 273 small cell lung
  TGI: > 100 µM
DMS 114 small cell lung
  TGI: > 100 µM
DLD-1 colon
  TGI: > 100 µM

## O=C1C2CCN(CC2)C1CN1CCOCC1 (stereo unspecified)
RXF-631 renal
  TGI: 31 µM
XF 498 CNS
  TGI: 14.5 µM
M19-MEL melanoma
  TGI: 26.2 µM
HOP-18 NSCLC
  TGI: 15.8 µM
KM20L2 colon
  TGI: 37 µM
DMS 273 small cell lung
  TGI: 25.3 µM
MDA-N
  TGI: 20.1 µM
DLD-1 colon
  TGI: 3.18 µM

## OC1CC2CCC(C1)N2CCCN1c2ccccc2Sc2ccc(Cl)cc21 (stereo unspecified)
MDA-N
  TGI: 3.62 µM

## O=C(c1c(F)c(F)c(F)c(F)c1F)c1c(F)c(F)c(F)c(F)c1F
MDA-N
  TGI: 3.11 µM

## CSC(=O)C[C@@]12O[C@@H]([C@@H](C)C3CCC4[C@@H]5C(O)CC6=CC(=O)C=C[C@]6(C)C5CC[C@@]43C)C[C@](C)(O1)C(C)(C)O2 (stereo partly specified)
RXF-631 renal
  TGI: 54.9 µM
XF 498 CNS
  TGI: 28.8 µM
M19-MEL melanoma
  TGI: 8.4 µM
DMS 273 small cell lung
  TGI: 35.9 µM
DMS 114 small cell lung
  TGI: 39.9 µM

## COc1ccc(CC(=O)NCCc2ccc(OC)c(OC)c2OC)cc1
RXF-631 renal
  TGI: > 100 µM
XF 498 CNS
  TGI: > 100 µM
M19-MEL melanoma
  TGI: > 100 µM
HOP-18 NSCLC
  TGI: > 100 µM
KM20L2 colon
  TGI: > 100 µM
DMS 114 small cell lung
  TGI: > 100 µM
DLD-1 colon
  TGI: > 100 µM

## [N-]=[N+]=NCN1C(=O)C2C3C=CC(C2C1=O)C1C2C(=O)N(CN=[N+]=[N-])C(=O)C2C31 (stereo unspecified)
MDA-N
  TGI: > 100 µM

## COC(=O)CCC(=O)Nc1ccc(Cl)cc1C
RXF-631 renal
  TGI: > 100 µM
XF 498 CNS
  TGI: > 100 µM
M19-MEL melanoma
  TGI: > 100 µM
HOP-18 NSCLC
  TGI: > 100 µM
KM20L2 colon
  TGI: > 100 µM
DMS 273 small cell lung
  TGI: > 100 µM
DMS 114 small cell lung
  TGI: > 100 µM
DLD-1 colon
  TGI: > 100 µM

## COc1ccc(C(=O)C2CCC(C(=O)O)C2)cc1 (stereo unspecified)
M19-MEL melanoma
  TGI: > 100 µM
KM20L2 colon
  TGI: > 100 µM
DMS 273 small cell lung
  TGI: > 100 µM
DMS 114 small cell lung
  TGI: > 100 µM
DLD-1 colon
  TGI: > 100 µM

## NC(=O)CC1OC(=O)Cc2cc3c(c(O)c21)C(=O)c1c(O)cccc1C3=O (stereo unspecified)
MDA-N
  TGI: > 100 µM

## CC(=O)OC12C(C)=C(C)C(=O)N1c1ccccc1N2C(C)=O (stereo unspecified)
XF 498 CNS
  TGI: > 100 µM
M19-MEL melanoma
  TGI: > 100 µM
HOP-18 NSCLC
  TGI: > 100 µM
KM20L2 colon
  TGI: > 100 µM
DMS 273 small cell lung
  TGI: > 100 µM

## CCCCCCCCCCCCSC(=S)c1c(C)[nH]n(-c2ccccc2)c1=O
RXF-631 renal
  TGI: > 50 µM
HOP-18 NSCLC
  TGI: > 50 µM
KM20L2 colon
  TGI: 39.5 µM
DMS 114 small cell lung
  TGI: 28.4 µM
DLD-1 colon
  TGI: > 50 µM

## Nc1nc(=O)n(C2CCC(CO)O2)cc1F (stereo unspecified)
HOP-18 NSCLC
  TGI: > 100 µM
KM20L2 colon
  TGI: > 100 µM
DMS 273 small cell lung
  TGI: > 100 µM
DMS 114 small cell lung
  TGI: > 100 µM
DLD-1 colon
  TGI: > 100 µM

## CC(C)(C)C(=O)N1C(C(=O)O)Cc2ccccc2[C@@H]1Cc1ccccc1 (stereo partly specified)
RXF-631 renal
  TGI: > 100 µM
XF 498 CNS
  TGI: > 100 µM
M19-MEL melanoma
  TGI: > 100 µM
HOP-18 NSCLC
  TGI: > 100 µM
KM20L2 colon
  TGI: > 100 µM
DMS 273 small cell lung
  TGI: > 100 µM
DMS 114 small cell lung
  TGI: > 100 µM

## Cc1ccc(OCC2CO2)c(Br)c1 (stereo unspecified)
MDA-N
  TGI: 58.9 µM
